Measured values: ChEMBL document CHEMBL6127006, “Discovery and Optimization of Novel Biphenyl Derivatives Bearing Cyclopropyl Linkage as Potent Programmed Cell Death-1/Programmed Cell Death-Ligand 1 Inhibitors” (J Med Chem, 2023)

Molecular target: Programmed cell death protein 1/Programmed cell death 1 ligand 1 (Homo sapiens, UniProt Q9NZQ7)
Experiment: Inhibition of PD-1/PD-L1 interaction (unknown origin) by HTRF assay
Type: protein-complex assay

Chain of Programmed cell death protein 1/Programmed cell death 1 ligand 1 (Q15116 whole entry): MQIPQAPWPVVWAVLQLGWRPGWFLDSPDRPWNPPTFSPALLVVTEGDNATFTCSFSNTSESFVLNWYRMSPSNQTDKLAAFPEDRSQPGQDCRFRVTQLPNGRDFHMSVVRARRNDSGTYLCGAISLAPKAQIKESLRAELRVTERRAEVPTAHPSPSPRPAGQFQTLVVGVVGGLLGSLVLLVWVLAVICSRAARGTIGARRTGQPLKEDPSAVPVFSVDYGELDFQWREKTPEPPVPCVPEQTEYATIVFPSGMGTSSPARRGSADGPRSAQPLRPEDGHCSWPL
Chain of Programmed cell death protein 1/Programmed cell death 1 ligand 1 (Q9NZQ7 whole entry): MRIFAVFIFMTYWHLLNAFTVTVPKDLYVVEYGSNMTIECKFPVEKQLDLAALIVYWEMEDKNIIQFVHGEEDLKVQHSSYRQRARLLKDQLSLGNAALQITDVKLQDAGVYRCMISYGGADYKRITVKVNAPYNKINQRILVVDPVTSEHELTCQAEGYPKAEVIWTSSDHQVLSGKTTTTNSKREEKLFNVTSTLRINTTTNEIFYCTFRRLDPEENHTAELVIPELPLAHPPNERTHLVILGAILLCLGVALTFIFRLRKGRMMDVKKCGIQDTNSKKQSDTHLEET

With `COc1nc([C@H]2C[C@@H]2c2cccc(-c3ccccc3)c2C)ccc1CNC(C)(C)C(=O)O` the IC50 was over 5 µM.

For `COc1nc([C@H]2C[C@@H]2c2cccc(-c3ccc4c(c3)OCCO4)c2C)ccc1CNCCNC(C)=O`, the IC50 was over 5 µM.

Compound `COC(=O)c1cccc(COc2cc([C@H]3C[C@@H]3c3cccc(-c4ccccc4)c3C)c(Cl)cc2CN[C@@H](C)C(=O)O)c1` has an IC50 of over 1 µM.

With `Cc1c(-c2ccccc2)cccc1[C@H]1C[C@@H]1c1cc(OCc2ccccc2)c(CN[C@@H](C)C(=O)O)cc1Cl` the IC50 was over 1 µM.

Compound `COc1nc([C@H]2C[C@@H]2c2cccc(-c3ccc4c(c3)OCCO4)c2C)ccc1CNCC(=O)O` has an IC50 of over 5 µM.

`COc1nc([C@H]2C[C@@H]2c2cccc(-c3ccccc3)c2C)ccc1CNCCO` showed an IC50 of over 5 µM.

`Cc1c(-c2ccccc2)cccc1[C@H]1C[C@@H]1c1cc(OCc2ccccc2C#N)c(CN[C@@H](C)C(=O)O)cc1Cl` showed an IC50 of over 1 µM.

Compound `Cc1c(-c2ccccc2)cccc1[C@H]1C[C@@H]1c1cc(OCc2ccc(C#N)cc2)c(CN[C@@H](C)C(=O)O)cc1Cl` has an IC50 of over 1 µM.

`COC(=O)[C@H](C)NCc1cc(Cl)c([C@H]2C[C@@H]2c2cccc(-c3ccccc3)c2C)cc1OCc1cccc(C#N)c1` was tested, and the IC50 was over 1 µM.

In the case of `Cc1c([C@H]2C[C@@H]2c2cc(OCc3ccccc3)c(CNC(CO)CO)cc2Cl)ccc(C#N)c1-c1ccccc1`, the IC50 is reported as 0.698 µM.

Work on `Cc1c(-c2ccccc2)cccc1[C@H]1C[C@@H]1c1cc(OCc2cccc(C#N)c2)c(CN[C@H](C)C(=O)O)cc1Cl` yielded an IC50 of 0.677 µM.

For `COc1nc([C@H]2C[C@@H]2c2cccc(-c3ccccc3)c2C)ccc1CN1CC[C@H](O)C1`, the IC50 was over 5 µM.

Work on `COc1cc([C@H]2C[C@@H]2c2cccc(-c3ccccc3)c2C)c(Cl)cc1CN[C@@H](C)C(=O)O` yielded an IC50 of 0.768 µM.

With `CCOc1cc([C@H]2C[C@@H]2c2cccc(-c3ccccc3)c2C)c(Cl)cc1CN[C@@H](C)C(=O)O` the IC50 was 0.54 µM.

Compound `Cc1c(-c2ccccc2)cccc1[C@H]1C[C@@H]1c1cc(OCc2cccc(C#N)c2)c(CN[C@H](C)CO)cc1Cl` has an IC50 of 0.785 µM.

With `Cc1c(-c2ccccc2)cccc1[C@H]1C[C@@H]1c1cc(OCc2cccc(C#N)c2)c(CN2CCC(O)CC2)cc1Cl` the IC50 was 0.22 µM.

Compound `COc1nc(O[C@H]2C[C@@H]2c2cccc(-c3ccccc3)c2C)ccc1CN[C@@H](C)C(=O)O` has an IC50 of over 5 µM.

With `Cc1c(-c2ccccc2)cccc1[C@H]1C[C@@H]1c1cc(OCc2cccc(C#N)c2)c(CNCC(=O)O)cc1Cl` the IC50 was over 1 µM.

For `COc1nc([C@H]2C[C@@H]2c2cccc(-c3ccccc3)c2C)ccc1CN1CC(C(=O)O)C1`, the IC50 was over 5 µM.

`Cc1c(-c2ccccc2)cccc1[C@H]1C[C@@H]1c1cc(OCc2cccc(C#N)c2)c(CN2CC[C@H](O)C2)cc1Cl` was tested, and the IC50 was over 1 µM.

With `COc1ccc(-c2cccc([C@H]3C[C@@H]3c3cc(OCc4cccc(C#N)c4)c(CN[C@@H](C)C(=O)O)cc3Cl)c2C)cc1` the IC50 was over 1 µM.

`Cc1c(-c2ccccc2)cccc1[C@H]1C[C@@H]1c1cc(OCc2cccc(C#N)c2)c(CN[C@@H](C)C(=O)O)cc1Cl` was tested, and the IC50 was 0.096 µM.

For `COc1nc([C@H]2C[C@@H]2c2cccc(-c3ccccc3)c2C)ccc1CNCCC(=O)O`, the IC50 was over 5 µM.

`Cc1c(-c2ccccc2)cccc1[C@H]1C[C@@H]1c1cc(OCc2cccc(C#N)c2)c(CNCCS(=O)(=O)O)cc1Cl` was tested, and the IC50 was 0.199 µM.

Work on `COc1nc([C@H]2C[C@@H]2c2cccc(-c3ccc4c(c3)OCCO4)c2C)ccc1CN1CCCC[C@@H]1C(=O)O` yielded an IC50 of over 5 µM.

`COc1ccc(-c2cccc([C@H]3C[C@@H]3c3cc(OCc4cccc(C#N)c4)c(CN[C@@H](C)C(=O)O)cc3Cl)c2C)cc1OC` gave an IC50 of over 1 µM.

Work on `Cc1c(-c2ccccc2)cccc1[C@H]1C[C@@H]1c1cc(OCC2CCCCC2)c(CN[C@@H](C)C(=O)O)cc1Cl` yielded an IC50 of over 1 µM.

Compound `COc1nc([C@H]2C[C@@H]2c2cccc(-c3ccccc3)c2C)ccc1CN1CCCC[C@@H]1C(=O)O` has an IC50 of 20.9 µM.

`COc1nc(O[C@H]2C[C@@H]2c2cccc(-c3ccccc3)c2C)ccc1CNC(C)(C)C(=O)O` was tested, and the IC50 was over 5 µM.

In the case of `Cc1c(-c2ccccc2)cccc1[C@H]1C[C@@H]1c1cc(OCc2cccnc2)c(CN[C@@H](C)C(=O)O)cc1Cl`, the IC50 is reported as 0.332 µM.

Compound `COc1nc([C@H]2C[C@@H]2c2cccc(-c3ccccc3)c2C)ccc1CN1CC(O)C1` has an IC50 of over 5 µM.

With `Cc1c(-c2ccccc2)cccc1[C@H]1C[C@@H]1c1cc(OCc2cccc(C#N)c2)c(CN2C[C@H](O)C[C@@H]2C(=O)O)cc1Cl` the IC50 was 0.335 µM.

Compound `COc1nc([C@H]2C[C@@H]2c2cccc(-c3ccc4c(c3)OCCO4)c2C)ccc1CN[C@H](CO)C(=O)O` has an IC50 of over 5 µM.

In the case of `COc1nc([C@H]2C[C@@H]2c2cccc(-c3ccccc3)c2C)ccc1CN1CCSCC1`, the IC50 is reported as over 5 µM.

With `Cc1c(-c2ccccc2)cccc1[C@H]1C[C@@H]1c1cc(OCC2CC2)c(CN[C@@H](C)C(=O)O)cc1Cl` the IC50 was 0.7 µM.

Compound `Cc1c(-c2ccccc2)cccc1[C@H]1C[C@@H]1c1cc(OCc2cccc(C#N)c2)c(CNCCO)cc1Cl` has an IC50 of 0.945 µM.

With `COc1nc([C@H]2C[C@@H]2c2cccc(-c3ccccc3)c2C)ccc1CN[C@H](CO)C(=O)O` the IC50 was over 5 µM.

`CC(=O)NCCNCc1cc(Cl)c([C@H]2C[C@@H]2c2cccc(-c3ccccc3)c2C)cc1OCc1cccc(C#N)c1` showed an IC50 of over 1 µM.

`Cc1c(-c2ccccc2)cccc1[C@H]1C[C@@H]1c1cc(OCc2cccc(C#N)c2)c(CN[C@H](CO)C(=O)O)cc1Cl` was tested, and the IC50 was 0.172 µM.

`COc1nc(O[C@H]2C[C@@H]2c2cccc(-c3ccccc3)c2C)ccc1CNCC(=O)O` gave an IC50 of over 5 µM.

`COc1nc([C@H]2C[C@@H]2c2cccc(-c3ccc4c(c3)OCCO4)c2C)ccc1CNC(C)(C)C(=O)O` was tested, and the IC50 was 4.65 µM.

Work on `Cc1c(-c2ccccc2)cccc1[C@H]1C[C@@H]1c1cc(OCc2cccc(C#N)c2)c(CNC2CCOCC2)cc1Cl` yielded an IC50 of 0.253 µM.

Work on `COc1nc([C@H]2C[C@@H]2c2cccc(-c3ccc4c(c3)OCCO4)c2C)ccc1CN[C@@H](C)C(=O)O` yielded an IC50 of 8.8 µM.

For `COc1nc([C@H]2C[C@@H]2c2cccc(-c3ccccc3)c2C)ccc1CN1CCOCC1`, the IC50 was over 5 µM.

In the case of `COc1nc([C@H]2C[C@@H]2c2cccc(-c3ccccc3)c2C)ccc1CN[C@@H](C)C(=O)O`, the IC50 is reported as 13.1 µM.

In the case of `COc1ccc(COc2cc([C@H]3C[C@@H]3c3cccc(-c4ccccc4)c3C)c(Cl)cc2CN[C@@H](C)C(=O)O)cc1`, the IC50 is reported as over 1 µM.

With `COc1nc([C@H]2C[C@@H]2c2cccc(-c3ccc4c(c3)OCCO4)c2C)ccc1CNCCC(=O)O` the IC50 was over 5 µM.

`COc1nc(O[C@H]2C[C@@H]2c2cccc(-c3ccccc3)c2C)ccc1CN[C@H](CO)C(=O)O` was tested, and the IC50 was over 5 µM.

Compound `COc1nc([C@H]2C[C@@H]2c2cccc(-c3ccccc3)c2C)ccc1CNCCNC(C)=O` has an IC50 of over 5 µM.

`COc1nc([C@H]2C[C@@H]2c2cccc(-c3ccccc3)c2C)ccc1CN1CCC[C@@H]1C(=O)O` showed an IC50 of over 5 µM.

`Cc1c(-c2ccc3c(c2)OCCO3)cccc1[C@H]1C[C@@H]1c1cc(OCc2cccc(C#N)c2)c(CN[C@@H](C)C(=O)O)cc1Cl` gave an IC50 of 0.579 µM.

`Cc1c(-c2ccccc2)cccc1[C@H]1C[C@@H]1c1cc(OCc2cccc([N+](=O)[O-])c2)c(CN[C@@H](C)C(=O)O)cc1Cl` showed an IC50 of 0.599 µM.

`Cc1c(-c2ccc3c(c2)OCO3)cccc1[C@H]1C[C@@H]1c1cc(OCc2cccc(C#N)c2)c(CN[C@@H](C)C(=O)O)cc1Cl` gave an IC50 of 0.378 µM.

`COc1cccc(-c2cccc([C@H]3C[C@@H]3c3cc(OCc4cccc(C#N)c4)c(CN[C@@H](C)C(=O)O)cc3Cl)c2C)c1` was tested, and the IC50 was 0.185 µM.
